Read-outs that look alike come from different tables or passages of the source.
Tests used:
[1] = biological target: T1, AChE (from electrophorus electricus) (Electrophorus electricus, UniProt O42275); assay: Cholinesterase inhibition assay (Ellman's method), AChE; assay type: biochemical; details: test concentration not given
T1 construct: purchased Merck or Aldrich
Experimental: (§1) AChE from electrophorus electricus and BuChE from equine serum was employed for Ellman’s assay. Each compound (5.0 mg) was dissolved in 1.0 ml of DMSO. […] Briefly, a mixture of phosphate buffer (2.0 ml, 0.1 M, pH = 8.0), 60.0 µl of DTNB solution, and 20.0 µl of AChE/BuChE was prepared, and 30.0 µl of the test compounds in different concentrations were then added to the mixture. Next, a solution of the substrate (acetylthiocholine iodide/butyrylthiocholine iodide, 20.0 µl) was added to the mixture after 10 min incubation at 25°C. All experiments were performed in triplicates, and the temperature of all solutions was controlled to be maintained at 25°C. […] The blank solution was used to validate the non-enzymatic hydrolysis of the substrate during the assessment. The blank solution was prepared by a mixture of 2.0 ml of buffer, 30.0 μl of DMSO, 60.0 μl of DTNB, and 20.0 μl of substrate. The rate of the enzymatic hydrolysis of the substrate was calculated, and % inhibition of the compounds was determined. The half maximal inhibitory concentration (IC50) values were graphically determined from inhibition curves (logarithm of the concentration of the tested compound versus percent of the inhibition).

[2] = biological target: T2, BuChE (from equine serum) (Equus caballus, UniProt P81908); assay: biochemical; assay type: biochemical; details: for IC50: mean ± SEM of three experiments, read-out: eq BuChE IC50; for eq BuChE %inhib.: test concentration not given
T2 construct: BuChE from equine serum was employed for Ellman’s assay; purchased Merck or Aldrich; host or cells: equine serum
Experimental: as §1

[3] = biological target: T3, 15-LOX (soybean lipoxygenase) (Glycine max, UniProt P08170); assay: Soybean 15-LOX inhibition assay; assay type: biochemical
T3 construct: purchased Merck or Aldrich
T3 sequence (P08170 1-839): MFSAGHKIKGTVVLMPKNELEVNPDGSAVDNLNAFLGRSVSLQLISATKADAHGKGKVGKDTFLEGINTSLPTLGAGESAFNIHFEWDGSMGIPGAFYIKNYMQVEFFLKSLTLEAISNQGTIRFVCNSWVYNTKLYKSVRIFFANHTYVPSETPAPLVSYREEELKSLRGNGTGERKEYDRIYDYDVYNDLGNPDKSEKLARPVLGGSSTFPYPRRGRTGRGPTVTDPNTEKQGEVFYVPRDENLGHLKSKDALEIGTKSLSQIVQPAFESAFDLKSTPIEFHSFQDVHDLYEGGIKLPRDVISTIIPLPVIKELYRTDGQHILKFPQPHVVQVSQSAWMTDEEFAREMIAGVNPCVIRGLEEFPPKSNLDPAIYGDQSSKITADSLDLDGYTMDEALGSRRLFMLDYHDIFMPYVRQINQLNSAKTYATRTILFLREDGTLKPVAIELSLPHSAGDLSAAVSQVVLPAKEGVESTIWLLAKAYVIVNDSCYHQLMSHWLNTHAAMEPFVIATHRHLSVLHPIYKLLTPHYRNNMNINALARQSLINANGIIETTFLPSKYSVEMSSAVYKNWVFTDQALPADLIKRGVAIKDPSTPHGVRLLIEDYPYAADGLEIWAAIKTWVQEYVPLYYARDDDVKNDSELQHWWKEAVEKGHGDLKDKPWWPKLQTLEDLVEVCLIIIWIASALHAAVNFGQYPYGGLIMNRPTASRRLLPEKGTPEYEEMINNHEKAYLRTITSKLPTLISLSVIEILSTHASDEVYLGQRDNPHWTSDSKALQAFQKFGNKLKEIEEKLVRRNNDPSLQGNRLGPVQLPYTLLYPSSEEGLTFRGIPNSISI
Experimental: A solution of the target compound was prepared in DMSO, and it was diluted with phosphate buffer (0.1 M, pH = 8.0).

Aβ1-42 = biological target: T4, Aβ1-42 (Homo sapiens, UniProt P05067); assay: Self-induced Aβ1-42 aggregation (ThT assay); assay type: biochemical; details: Aβ1-42 10.0 μM, compound 100.0 μM, ThT
T4 construct: was used to dissolve amyloid β1-40 (Sigma A1075); purchased Sigma A1075

in vitro = assay type: cell-based; details: MTT, read-out: PC12 viability percent (cytotoxicity)
Experimental: The cytotoxic effect of the selected compounds (8l and 8n) on the PC12 cell line was evaluated by using the MTT-based colorimetric assay. First, the PC12 cell line was cultivated in DMEM culture medium, supplemented with fetal bovine serum (10%). […]. Thereafter, the culture medium of each well was replaced by 20 µl MTT solution (5.0 mg/ml) and incubated to form formazan crystals, followed by dissolving them in DMSO (100.0 µl) and recording the related absorbance at 570 nm using a Synergy 2 multimode plate reader (Biotek, Winooski, VT, United States). The viability percent was then calculated according to the control well, where no compound was added to the related well. The mentioned protocol was repeated in triplicates, and the mean ± SEM of the obtained results was reported.

[4] = soybean lipoxygenase, linoleic acid substrate, read-out: 15-LOX IC50

T2 sequence (P81908 whole entry): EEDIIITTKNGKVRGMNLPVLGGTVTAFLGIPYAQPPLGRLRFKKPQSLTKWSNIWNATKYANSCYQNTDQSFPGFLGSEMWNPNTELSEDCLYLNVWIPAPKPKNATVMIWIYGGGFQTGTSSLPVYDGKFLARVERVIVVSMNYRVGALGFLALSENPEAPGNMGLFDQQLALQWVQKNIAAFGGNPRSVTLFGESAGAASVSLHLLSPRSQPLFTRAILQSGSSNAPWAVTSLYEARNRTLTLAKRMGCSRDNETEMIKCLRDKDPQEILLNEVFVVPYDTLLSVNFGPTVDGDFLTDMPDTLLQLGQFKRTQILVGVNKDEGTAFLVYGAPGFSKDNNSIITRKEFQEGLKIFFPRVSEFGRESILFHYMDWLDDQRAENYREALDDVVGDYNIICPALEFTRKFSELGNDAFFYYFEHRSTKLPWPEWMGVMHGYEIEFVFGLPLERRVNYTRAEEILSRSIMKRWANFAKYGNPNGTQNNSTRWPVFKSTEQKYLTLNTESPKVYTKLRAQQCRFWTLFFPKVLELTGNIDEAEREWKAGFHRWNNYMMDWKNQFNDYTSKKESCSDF
T1 sequence (O42275 24-633): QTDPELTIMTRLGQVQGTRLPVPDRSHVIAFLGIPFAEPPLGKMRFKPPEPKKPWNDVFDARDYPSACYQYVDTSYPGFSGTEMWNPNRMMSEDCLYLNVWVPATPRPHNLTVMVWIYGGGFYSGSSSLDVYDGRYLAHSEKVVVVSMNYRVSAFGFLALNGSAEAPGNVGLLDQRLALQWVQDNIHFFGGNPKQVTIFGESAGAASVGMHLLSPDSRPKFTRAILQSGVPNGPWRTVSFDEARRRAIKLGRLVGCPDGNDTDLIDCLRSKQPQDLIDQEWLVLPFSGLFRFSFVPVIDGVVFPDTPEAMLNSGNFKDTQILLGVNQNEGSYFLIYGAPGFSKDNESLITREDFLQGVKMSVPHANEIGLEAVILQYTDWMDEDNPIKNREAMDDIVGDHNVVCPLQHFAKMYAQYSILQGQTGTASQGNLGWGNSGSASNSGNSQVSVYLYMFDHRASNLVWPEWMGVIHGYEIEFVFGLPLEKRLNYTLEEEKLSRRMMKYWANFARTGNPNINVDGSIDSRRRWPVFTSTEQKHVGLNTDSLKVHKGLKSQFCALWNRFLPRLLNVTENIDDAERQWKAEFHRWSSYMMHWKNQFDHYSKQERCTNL
T4 sequence (P05067 672-711): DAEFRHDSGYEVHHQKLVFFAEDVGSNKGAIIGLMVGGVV

| Compound | ee AChE %inhib. [1] | IC50 [2] | IC50 [3] | IC50 [3, 4] | eq BuChE %inhib. [2] | Inhibition of self-induced Aβ1-42 aggregation (Aβ1-42) | viability at 24 h, 50 µM (in vitro) |
| --- | --- | --- | --- | --- | --- | --- | --- |
| O=c1oc2ccc([N+](=O)[O-])cc2cc1-c1ccc(OCc2cn(Cc3ccccc3)nn2)cc1 [8v, 3-(4-((1-Benzyl-1H-1,2,3-triazol-4-yl)methoxy)phenyl)-6-nitro-2H-chromen-2-one] | 48.3% | 6.3 ± 0.4 µM | > 100 µM |  |  |  |  |
| COc1cccc2cc(-c3ccc(OCc4cn(Cc5ccc(Cl)cc5)nn4)cc3)c(=O)oc12 [8r, 3-(4-((1-(4-Chlorobenzyl)-1H-1,2,3-triazol-4-yl)methoxy)phenyl)-8-methoxy-2H-chromen-2-one] | 41.5% | 6.7 ± 0.4 µM | > 100 µM |  |  |  |  |
| O=c1oc2ccccc2cc1-c1ccc(OCc2cn(Cc3ccccc3Cl)nn2)cc1 [8e, 3-(4-((1-(2-Chlorobenzyl)-1H-1,2,3-triazol-4-yl)methoxy)phenyl)-2H-chromen-2-one] | 37.3% |  |  | > 100 µM |  |  |  |
| COc1cccc2cc(-c3ccc(OCc4cn(Cc5cccc(F)c5)nn4)cc3)c(=O)oc12 [8p, 3-(4-((1-(3-Fluorobenzyl)-1H-1,2,3-triazol-4-yl)methoxy)phenyl)-8-methoxy-2H-chromen-2-one] | 29.8% |  | 22.6 ± 0.8 µM |  | 41.7% |  |  |
| COc1cccc2cc(-c3ccc(OCc4cn(Cc5ccccc5F)nn4)cc3)c(=O)oc12 [8o, 3-(4-((1-(2-Fluorobenzyl)-1H-1,2,3-triazol-4-yl)methoxy)phenyl)-8-methoxy-2H-chromen-2-one] | 4.0% |  | 14.2 ± 0.4 µM |  | 8.0% |  |  |
| COc1cccc2cc(-c3ccc(OCc4cn(Cc5ccccc5[N+](=O)[O-])nn4)cc3)c(=O)oc12 [8s, 8-Methoxy-3-(4-((1-(2-nitrobenzyl)-1H-1,2,3-triazol-4-yl)methoxy)phenyl)-2H-chromen-2-one] | 27.4% |  |  | > 100 µM | 42.5% |  |  |
| O=c1oc2ccccc2cc1-c1ccc(OCc2cn(Cc3ccccc3F)nn2)cc1 [8b, 3-(4-((1-(2-Fluorobenzyl)-1H-1,2,3-triazol-4-yl)methoxy)phenyl)-2H-chromen-2-one] | 11.2% | 36.5 ± 1.1 µM | 16.5 ± 0.7 µM |  |  |  |  |
| Cc1cccc(Cn2cc(COc3ccc(-c4cc5ccccc5oc4=O)cc3)nn2)c1 [8k, 3-(4-((1-(3-Methylbenzyl)-1H-1,2,3-triazol-4-yl)methoxy)phenyl)-2H-chromen-2-one] | 27.4% |  |  | 53.5 ± 1.5 µM | 37.1% |  |  |
| O=c1oc2ccccc2cc1-c1ccc(OCc2cn(Cc3ccc(Br)cc3)nn2)cc1 [8g, 3-(4-((1-(4-Bromobenzyl)-1H-1,2,3-triazol-4-yl)methoxy)phenyl)-2H-chromen-2-one] | 35.5% |  |  | > 100 µM | 46.7% |  |  |
| COc1cc2c(cc1OC)C(=O)C(CC1CCN(Cc3ccccc3)CC1)C2 (stereo not drawn) [Donepezil, donepezil, reference compound] |  |  |  |  |  | 42.5 ± 0.3% |  |
| O=c1oc2ccccc2cc1-c1ccc(OCc2cn(Cc3ccc([N+](=O)[O-])cc3)nn2)cc1 [8j, 3-(4-((1-(4-Nitrobenzyl)-1H-1,2,3-triazol-4-yl)methoxy)phenyl)-2H-chromen-2-one] | 14.7% |  |  | > 100 µM |  |  |  |
| O=c1oc2ccccc2cc1-c1ccc(OCc2cn(Cc3ccccc3[N+](=O)[O-])nn2)cc1 [8h, 3-(4-((1-(2-Nitrobenzyl)-1H-1,2,3-triazol-4-yl)methoxy)phenyl)-2H-chromen-2-one] | 20.8% |  |  | > 100 µM |  |  |  |
| O=c1oc2ccccc2cc1-c1ccc(OCc2cn(Cc3ccc(F)cc3)nn2)cc1 [8d, 3-(4-((1-(4-Fluorobenzyl)-1H-1,2,3-triazol-4-yl)methoxy)phenyl)-2H-chromen-2-one] | 32.4% |  | 45.2 ± 1.5 µM |  | 12.7% |  |  |
| COc1ccc(Cn2cc(COc3ccc(-c4cc5ccccc5oc4=O)cc3)nn2)cc1 [8m, 3-(4-((1-(4-Methoxybenzyl)-1H-1,2,3-triazol-4-yl)methoxy)phenyl)-2H-chromen-2-one] | 26.6% |  | 41 ± 1.4 µM |  | 40.2% |  |  |
| O=c1oc2ccccc2cc1-c1ccc(OCc2cn(Cc3cccc(F)c3)nn2)cc1 [8c, 3-(4-((1-(3-Fluorobenzyl)-1H-1,2,3-triazol-4-yl)methoxy)phenyl)-2H-chromen-2-one] | 15.3% |  | 28.3 ± 1.4 µM |  | 48.9% |  |  |
| Nc1c2c(nc3ccccc13)CCCC2 [Tacrine, tacrine, reference compound] |  |  |  |  |  |  | 67.3 ± 1.3% |
| O=c1oc2ccccc2cc1-c1ccc(OCc2cn(Cc3cccc([N+](=O)[O-])c3)nn2)cc1 [8i, 3-(4-((1-(3-Nitrobenzyl)-1H-1,2,3-triazol-4-yl)methoxy)phenyl)-2H-chromen-2-one] | 49.9% |  |  | > 100 µM |  |  |  |
| O=c1oc2ccc(Br)cc2cc1-c1ccc(OCc2cn(Cc3ccc(Br)cc3)nn2)cc1 [8t, 6-Bromo-3-(4-((1-(4-bromobenzyl)-1H-1,2,3-triazol-4-yl)methoxy)phenyl)-2H-chromen-2-one] | 15.1% |  |  | > 100 µM |  |  |  |
| O=c1oc2ccccc2cc1-c1ccc(OCc2cn(Cc3ccc(Cl)cc3)nn2)cc1 [8f, 3-(4-((1-(4-Chlorobenzyl)-1H-1,2,3-triazol-4-yl)methoxy)phenyl)-2H-chromen-2-one] | 41.4% |  |  | > 100 µM | 23.6% |  |  |
| COc1cccc2cc(-c3ccc(OCc4cn(Cc5ccc(F)cc5)nn4)cc3)c(=O)oc12 [8q, 3-(4-((1-(4-Fluorobenzyl)-1H-1,2,3-triazol-4-yl)methoxy)phenyl)-8-methoxy-2H-chromen-2-one] | 38.1% | 18.9 ± 0.9 µM | 35 ± 1.3 µM |  |  |  |  |
| O=c1oc2ccccc2cc1-c1ccc(OCc2cn(Cc3ccccc3)nn2)cc1 [8a, 3-(4-((1-Benzyl-1H-1,2,3-triazol-4-yl)methoxy)phenyl)-2H-chromen-2-one] | 23.6% | 27.6 ± 1.3 µM | 36.2 ± 1.5 µM |  |  |  |  |
| O=c1oc2ccc([N+](=O)[O-])cc2cc1-c1ccc(OCc2cn(Cc3ccccc3F)nn2)cc1 [8w, 3-(4-((1-(2-Fluorobenzyl)-1H-1,2,3-triazol-4-yl)methoxy)phenyl)-6-nitro-2H-chromen-2-one] | 16.6% |  |  | > 100 µM | 30.4% |  |  |
| O=c1oc2ccc(Br)cc2cc1-c1ccc(OCc2cn(Cc3ccccc3F)nn2)cc1 [8u, 6-Bromo-3-(4-((1-(2-fluorobenzyl)-1H-1,2,3-triazol-4-yl)methoxy)phenyl)-2H-chromen-2-one] | 45.1% |  |  | 61.5 ± 1.9 µM | 46.6% |  |  |

From article PMC8812461, “Synthesis of New 3-Arylcoumarins Bearing N-Benzyl Triazole Moiety: Dual Lipoxygenase and Butyrylcholinesterase Inhibitors With Anti-Amyloid Aggregation and Neuroprotective Properties Against Alzheimer’s Disease” (Frontiers in Chemistry, 2022)
